Laboratory results reported in US20080039431A1, “Method of improving plant growth by reducing viral infections” (priority 2006, published 2008).

Legend:
[1] = tested on: tomato spotted wilt virus (TSWV); assay: Tobacco drench / broadcast spray trial (Example 8); type: in vivo, tobacco (Nicotiana tabacum); details: acibenzolar-S-methyl 2.47 g ai/Ha broadcast spray
Source text: Cultivation—A trial on tobacco (Nicotiana tabacum) was initiated in Molino, Fla., to see if drenches of prothioconazole alone and in combination with the insecticide imidacloprid could control TSWV in tobacco. Plants of cultivar C-371 Gold were transplanted on April 28 into 9.1 meter plots with three replications. All eight treatments were applied after transplanting on May 1. Foliar treatments were applied as a broadcast spray, while drenches were applied as in Example 6. Acibenzolar-S-methyl is a plant defense activator used to control TSWV in tobacco.
Treatments— • Untreated • Imidacloprid@0.01 g imidacloprid/plant • Imidacloprid@0.015 g Imidacloprid/plant • Prothioconazole@0.0084 g active ingredient/plant • Prothioconazole@0.0084 g active ingredient/plant+Imidacloprid@0.01 g imidacloprid/plant • Prothioconazole@0.0084 g active ingredient/plant+Imidacloprid@0.015 g […] label. • Acibenzolar-S-methyl@2.47 g active ingredient/Ha as a broadcast spray as per label.
TSWV rating—For TSWV incidence determination the percentage of plants with TSWV symptoms (chlorosis and stunting) was determined for the eight treatments as in Example 6.

[2] = tested on: tomato spotted wilt virus (TSWV); assay: Bell pepper drench trial (Example 7); type: in vivo, bell pepper (Capsicum annum L.); details: for Percent control of incidence of TSWV in bell peppers: Abbott's formula; for Percent incidence TSWV in bell peppers: drench, prothioconazole 0.0084 g ai/plant, imidacloprid 0.01 g/plant
Description: Cultivation—A trial on bell pepper (Capsicum annum L.) was initiated in Molino, Fla. to see if drenches of prothioconazole alone and in combination with the insecticide imidacloprid could control TSWV in pepper. Bell pepper plants were transplanted on April 11 into 9.1 meter plots with three replications as in Example 6. Treatments were applied as a drench in 40 ml water per plant (7 days after transplanting) on April 18 as in Example 6.
Treatments— • Untreated—no in-furrow treatment. • Imidacloprid—imidacloprid@0.01 g imidacloprid/plant. • Prothioconazole—prothioconazole@0.0084 g prothioconazole/plant. • Prothioconazole+Imidacloprid—prothioconazole@0.0084 g active ingredient/plant+imidacloprid@0.01 g imidacloprid/plant.
TSWV rating—For TSWV incidence determination, the percentage of plants with TSWV symptoms (chlorosis and stunting) was determined for the four treatments at 21, 29, 38, and 47 days after treatment as in Example 6.
Synergy formula—The Colby formula for proof of synergy was used in Example 7 as in Example 6.

[3] = tested on: tomato spotted wilt virus (TSWV); assay: Replicated tomato drench trial (Example 6); type: in vivo, tomato (Lycopersicon esculentum MILL.); details: prothioconazole 0.0084 g ai/plant, imidacloprid 0.01 g/plant; for Percent control of incidence of TSWV in tomatoes: Abbott's formula; for Percent incidence of TSWV in tomatoes: drench
Description: Cultivation—A replicated trial on tomato (Lycopersicon esculentum MILL.) was initiated in Molino, Fla. to determine if drenches of prothioconazole alone and in combination with the insecticide imidacloprid would suppress TSWV in tomato. Tomato plants, cultivar FL 47 were transplanted on April 11 into 4 rows, each 9.1 meters long, 60 plants per plot, with three replications. Treatments were applied, into a shallow bowl dug at the base of each plant, as a drench in 40 ml water per plant (6 days after transplanting) on April 17. Treatments— • Untreated—no in-furrow treatment • Imidacloprid@0.01 g imidacloprid/plant. • Prothioconazole—prothioconazole@0.0084 g active ingredient/plant. • Prothioconazole+Imidacloprid—prothioconazole@0.0084 g active ingredient/plant+imidacloprid@0.01 g imidacloprid/plant. TSWV rating—University researchers recommend buffers in TSWV testing. Therefore, the center two rows (30 plants) per plot were used for virus ratings with the outer two rows acting as buffers. TSWV incidence determinations were made based on the presence or absence of TSWV symptoms (chlorosis and stunting) per plant. The four treatments were rated at 21, 29, and 39 days after treatment. Synergy formula—The Colby formula for proof of synergy was used in Example 6. The percent incidence values were converted to percent control with Abbotts's formula (1-treated/untreated)*100. Percent control values for solo treatment X and solo treatment Y, were entered into the Colby formula. When the value determined from the plots with both treatment X and Y applied together is greater than the value determined by the Colby formula then synergy is indicated. The formula is: X+Y−(X*Y/100).

[4] = 14 days after treatment, prothioconazole 0.0084 g ai/plant, imidacloprid 0.01 g/plant (drench)
[5] = 21 days after treatment, prothioconazole 0.0084 g ai/plant, imidacloprid 0.01 g/plant (drench)
[6] = 38 days after treatment, prothioconazole 0.0084 g ai/plant, imidacloprid 0.01 g/plant (drench)

O=[N+]([O-])NC1=NCCN1Cc1ccc(Cl)nc1 [Imidacloprid, imidacloprid]
Percent incidence TSWV in tobacco ([1]; 14 days after treatment, imidacloprid 0.015 g/plant, prothioconazole 0.0084 g ai/plant (drench)): 23.9% | Percent incidence TSWV in tobacco [1, 4]: 23.9% | Percent incidence TSWV in tobacco ([1]; 21 days after treatment, imidacloprid 0.015 g/plant, prothioconazole 0.0084 g ai/plant (drench)): 25.5% | Percent incidence TSWV in tobacco [1, 5]: 24.4% | Percent incidence TSWV in tobacco ([1]; 38 days after treatment, imidacloprid 0.015 g/plant, prothioconazole 0.0084 g ai/plant (drench)): 45.5% | Percent incidence TSWV in tobacco [1, 6]: 45.0% | Percent control of incidence of TSWV in bell peppers ([2]; 21 days after treatment): 26.14% | Percent incidence TSWV in bell peppers ([2]; 21 days after treatment): 17.8% | Percent control of incidence of TSWV in bell peppers ([2]; 29 days after treatment): 45.84% | Percent incidence TSWV in bell peppers ([2]; 29 days after treatment): 25.4% | Percent control of incidence of TSWV in bell peppers ([2]; 38 days after treatment): 25.49% | Percent incidence TSWV in bell peppers ([2]; 38 days after treatment): 38.3% | Percent control of incidence of TSWV in bell peppers ([2]; 47 days after treatment): 19.32% | Percent incidence TSWV in bell peppers ([2]; 47 days after treatment): 42.6% | Increase of TSWV level from 38 DAT to 47 DAT ([2]; bell pepper, untreated increased by 1.4 percent): roughly 4.5% | Percent control of incidence of TSWV in tomatoes ([3]; 21 days after treatment): 65.07% | Percent incidence of TSWV in tomatoes ([3]; 21 days after treatment): 10.2% | Percent control of incidence of TSWV in tomatoes ([3]; 29 days after treatment): 50.52% | Percent incidence of TSWV in tomatoes ([3]; 29 days after treatment): 33.4% | Percent control of incidence of TSWV in tomatoes ([3]; 39 days after treatment): 41.30% | Percent incidence of TSWV in tomatoes ([3]; 39 days after treatment): 49.6%

CSC(=O)c1cccc2nnsc12 [acibenzolar-S-methyl]
Percent incidence TSWV in tobacco [1, 4]: 36.7% | Percent incidence TSWV in tobacco [1, 5]: 46.7% | Percent incidence TSWV in tobacco [1, 6]: 53.9%
